# Measured values published in patent US20050250819A1 (priority 2004, published 2005).
# Tested on: Type III-dependent secretion of ExoU by P. aeruginosa PA103
# Assay: Tertiary assay: Type III-dependent secretion of ExoU by P. aeruginosa PA103
# Format: cell-based
# Conditions: Pseudomonas aeruginosa, ExoU secreted into extracellular medium
# Source text: Tertiary assay: inhibition of Type III protein secretion of effectors from a Pseudomonas aeruginosa system. Type III protein secretion is used by P. aeruginosa to secrete several essential virulence determinants. One effector of the type III protein secretion system of P. aeruginosa PA103 is the virulence determinants ExoU.
# The amount of Type III-dependent secretion of ExoU by P. aeruginosa PA103 can be determined in a cell-based assay by quantification of the 73.9 kDa ExoU protein secreted into the extracellular medium. Such quantitation can be achieved by growing strain PA103 in a deferrated medium in the presence of nitrilotriacetic acid (an inducer of Type III protein secretion in P. aeruginosa) and either in the presence or absence of putative inhibitors. After a prolonged growth period, the cells are sedimented and the supernatants concentrated by ammonium sulfate precipitation. The proteins in the resuspended pellets are separated by electrophoresis on SDS-polyacrylamide gels. After staining gels with Colloidal Blue™, the 73.9 kDa ExoU band is quantitated by scanning through an imager. The effects of inhibitors on the intensity of the ExoU band may be measured relative to that of untreated controls.
row,SMILES,IC50 [µM]
1,"O=C(N[C@@H](COCc1ccccc1)C(=O)O)/C(=C\c1ccc(Cl)c(Cl)c1)NC(=O)c1ccc(-c2ccccc2)cc1 [Compound 26, (S)-3-Benzyloxy-2-[2-[(biphenyl-4-carbonyl)amino]-3-(3,4-dichlorophenyl)-acryloylamino]propionic acid]",24
2,"O=C(N[C@@H](CSCc1ccccc1)C(=O)O)/C(=C\c1ccc(Cl)c(Cl)c1)NC(=O)C1CCN(c2nccc(C(F)(F)F)n2)CC1 [Compound 74, (R)-3-Benzylsulfanyl-2-(3-(3,4-dichlorophenyl)-2-{[1-(4-trifluoromethylpyrimidin-2-yl)piperidine-4-carbonyl]amino}acryloylamino)propionic acid]",33.8
3,"O=C(N[C@H](COCc1ccccc1)C(=O)O)/C(=C\c1ccc(I)cc1)NC(=O)C1CCN(c2nccc(C(F)(F)F)n2)CC1 [Compound 75, (R)-3-Benzyloxy-2-(3-(4-iodophenyl)-2-{[1-(4-trifluoromethylpyrimidin-2-yl)-piperidine-4-carbonyl]amino}acryloylamino)propionic acid]",66.3
4,"O=C(NC(Cc1ccc(Cl)cc1)C(=O)O)/C(=C\c1ccc(-c2ccccc2)cc1)NC(=O)c1ccc(C(F)(F)F)cc1 (stereo not shown) [Compound 55, 2-[3-Biphenyl-4-yl-2-(4-trifluoromethylbenzoylamino)acryloylamino]-3-(4-chloro-phenyl)propionic acid]",13
5,O=C(NC(Cc1ccc(Cl)cc1)C(=O)O)/C(=C\c1cccc(C(F)(F)F)c1)NC(=O)c1ccc(-c2ccccc2)cc1 (stereo not shown) [Compound 97],13
6,"O=C(N[C@@H](CSCc1ccccc1)C(=O)O)/C(=C\c1ccc(Oc2ccccc2)cc1)NC(=O)c1ccc(Cl)cc1 [Compound 44, (R)-3-Benzylsulfanyl-2-[2-(4-chlorobenzoylamino)-3-(4-phenoxyphenyl)-acryloylamino]propionic acid]",26.5
7,"O=C(N[C@@H](CSCc1ccccc1)C(=O)O)/C(=C\c1ccc(OC(F)(F)F)cc1)NC(=O)c1ccc(I)cc1 [Compound 22, (R)-3-Benzylsulfanyl-2-[2-(4-iodobenzoylamino)-3-(4-trifluoromethoxyphenyl)-acryloylamino]propionic acid]",47
8,O=C(NC(COCc1ccccc1)C(=O)O)/C(=C\c1ccc(-c2ccccc2)cc1)NC(=O)c1ccc(C(F)(F)F)cc1 (stereo not shown) [Compound 133],100
9,"O=C(N[C@@H](CCSCc1ccccc1)C(=O)O)/C(=C\c1ccc(-c2ccccc2)cc1)NC(=O)c1ccc(C(F)(F)F)cc1 [Compound 7, (S)-4-Benzylsulfanyl-2-[3-biphenyl-4-yl-2-(4-trifluoromethylbenzoylamino)-acryloylamino]butyric acid]",31
10,"O=C(N[C@@H](CSCc1ccccc1)C(=O)O)/C(=C\c1cccc(C(F)(F)F)c1)NC(=O)C1CCN(c2nccc(C(F)(F)F)n2)CC1 [Compound 78, (R)-3-Benzylsulfanyl-2-(3-(3-trifluoromethylphenyl)-2-{[1-(4-trifluoromethylpyrimidin-2-yl)piperidine-4-carbonyl]amino}acryloylamino)propionic acid]",67.3
11,"O=C(N[C@H](COCc1ccccc1)C(=O)O)/C(=C\c1ccc(Cl)c(Cl)c1)NC(=O)c1ccc(-c2ccccc2)cc1 [Compound 56, (R)-3-Benzyloxy-2-[2-[(biphenyl-4-carbonyl)amino]-3-(3,4-dichlorophenyl)-acryloylamino]propionic acid]",20.2
12,"O=C(N[C@H](Cc1ccc(Cl)cc1)C(=O)O)/C(=C\c1cccc(C(F)(F)F)c1)NC(=O)c1ccc(-c2ccccc2)cc1 [Compound 39, (R)-2-[2-[(Biphenyl-4-carbonyl)amino]-3-(3-trifluoromethylphenyl)acryloylamino]-3-(4-chlorophenyl)propionic acid]",17
13,"O=C(N[C@@H](CSCc1ccccc1)C(=O)O)/C(=C\c1ccc(Oc2ccc(F)cc2)cc1)NC(=O)c1ccc(C(F)(F)F)cc1 [Compound 57, (R)-3-Benzylsulfanyl-2-[3-[4-(4-fluorophenoxy)phenyl]-2-(4-trifluoromethyl-benzoylamino)acryloylamino]propionic acid]",35

# Tested on: Type III protein secretion of the chimeric SopE‘-’Bla polypeptide (SPI1 type III protein secretion system)
# Assay: Primary assay: Type III protein secretion of the chimeric SopE'-'Bla polypeptide by Salmonella enterica
# Format: cell-based
# Conditions: read-out: SopE IC50(μM)
# Source text: Primary assay: Type III protein secretion of the chimeric SopE‘-’Bla polypeptide by Salmonella enterica. This procedure is a cell-based assay that measures the type III-dependent secretion by Salmonella enterica of a plasmid-encoded chimeric polypeptide whose synthesis can be regulated, and which is endowed with an enzymatic activity that can be monitored colorimetrically by hydrolysis of a substrate that is unable to penetrate into the bacterial cytoplasm within the time constraints of the reaction. Thus, the colormetric reaction is not influenced by SopE‘-’Bla polypeptide in the bacterial cytplasm. Instead, it effectively measures the amount of polypeptide that has been secreted from the S. enterica cytoplasm to the extracellular medium via type III system protein secretion.
# The SopE‘-’Bla recombinant polypeptide consists of two functionally distinct domains spliced together. The N-terminus domain is encoded by a polynucleotide region specifying the signal for type III secretion of the SopE polypeptide of S. enterica, an effector of the SPI1 type III protein secretion system. The C-terminus domain of SopE‘-’Bla consists of a 263 amino acid peptide sequence that corresponds to the TEM-1 β-lactamase expressed by plasmid pBR322 but without its N-terminal signal sequence. The TEM-1 β-lactamase part of the SopE‘-’Bla chimeric polypeptide is used as a reporter enzyme. It is capable of hydrolyzing nitrocefin resulting in a product whose accumulation can be monitored by colorimetric detection. The secretion of the SopE‘-’Bla chimeric polypeptide from the cytoplasm to the extracellular medium is dependent on type III protein secretion.
# For this procedure, cells grown under conditions known to favor a functional SPI1 secretion system are induced for expression of the SopE‘-’Bla protein and grown either in the presence or in the absence of putative inhibitors for determined time. Nitrocefin is then added to the various cultures and its hydrolysis are used for quantitation. An inhibitor of Type III protein secretion is generally a compound that reduces the signal of the enzymatic reaction by decreasing the amount of SopE‘-’Bla secreted into the extracellular medium.
row,SMILES,IC50 [µM]
1,"O=C(N[C@H](Cc1ccc(Cl)cc1)C(=O)O)/C(=C\c1cccc(C(F)(F)F)c1)NC(=O)c1ccc(OC(F)(F)F)cc1 [Compound 36, (R)-3-(4-Chlorophenyl)-2-[2-(4-trifluoromethoxybenzoylamino)-3-(3-trifluoromethylphenyl)acryloylamino]propionic acid]",21.6
2,"O=C(N[C@@H](Cc1ccc(Cl)cc1)C(=O)O)/C(=C\c1cccc(C(F)(F)F)c1)NC(=O)C1CCN(c2nccc(C(F)(F)F)n2)CC1 [Compound 79, (S)-3-(4-Chlorophenyl)-2-(3-(3-trifluoromethylphenyl)-2-{[1-(4-trifluoromethyl-pyrimidin-2-yl)piperidine-4-carbonyl]amino}acryloylamino)propionic acid]",25.9
3,"O=C(NN(Cc1cccc(Oc2ccccc2)c1)C(=O)N[C@@H](CSCc1ccccc1)C(=O)O)c1ccc(C(F)(F)F)cc1 [Compound 9, 4-Trifluoromethylbenzoic acid-N′-[(3-phenoxyphenyl)methyl]-N′-[[[(2-benzylthio)-1-carboxyethyl]amino]carbonyl]hydrazide]",15
4,"O=C(N[C@H](CSCc1ccccc1)C(=O)O)/C(=C\c1ccc(C(F)(F)F)cc1)NC(=O)c1cc2ccccc2s1 [Compound 64, (S)-2-[2-[(Benzo[b]thiophene-2-carbonyl)amino]-3-(4-trifluoromethylphenyl)-acryloylamino]-3-benzylsulfanylpropionic acid]",49.4
5,NC(=O)C[C@@H](NC(=O)/C(=C\c1ccc(Cl)c(Cl)c1)NC(=O)c1ccc(-c2ccccc2)cc1)C(=O)O [Compound 112],16.6
6,O=C(NC(CCSCc1ccccc1)C(=O)O)/C(=C\c1ccc(Cl)cc1Cl)NC(=O)c1ccc(-c2ccccc2)cc1 (stereo not shown) [Compound 104],3.8
7,"O=C(N[C@@H](Cc1ccc(Cl)cc1)C(=O)O)/C(=C\c1ccc(OC(F)(F)F)cc1)NC(=O)C1CCN(c2nccc(C(F)(F)F)n2)CC1 [Compound 85, (S)-3-(4-Chlorophenyl)-2-(3-(4-trifluoromethoxyphenyl)-2-{[1-(4-trifluoromethyl-pyrimidin-2-yl)piperidine-4-carbonyl]amino}acryloylamino)propionic acid]",35.2
8,"O=C(N[C@H](CSCc1ccccc1)C(=O)O)/C(=C\c1ccc(Cl)c(Cl)c1)NC(=O)c1cc2ccccc2s1 [Compound 67, (S)-2-[2-[(Benzo[b]thiophene-2-carbonyl)amino]-3-(3,4-dichlorophenyl)-acryloylamino]-3-benzylsulfanylpropionic acid]",27
9,"COc1ccc(/C=C(/NC(=O)c2ccc(-c3ccccc3)cc2)C(=O)N[C@@H](Cc2ccc(Cl)cc2)C(=O)O)cc1OC (stereo in doubt) [Compound 50, 2-[2-[(Biphenyl-4-carbonyl)amino]-3-(3,4-dimethoxyphenyl)acryloylamino]-3-(4-chlorophenyl)propionic acid]",79.4
10,O=C(NC(Cc1ccc(Cl)cc1)C(=O)O)/C(=C\c1ccc(Cl)c(Cl)c1)NC(=O)c1ccc(C(F)(F)F)cc1 (stereo not shown) [Compound 91],7.6
11,"O=C(NCC1CCCO1)/C(=C\c1ccc(-c2ccccc2)cc1)NC(=O)c1ccc(C(F)(F)F)cc1 (stereo not shown) [Compound 2, N-{2-Biphenyl-4-yl-1-[(tetrahydro-furan-2-yl-methyl)carbamyl]vinyl}-4-trifluoromethylbenzamide]",69
12,"O=C(N[C@H](COCc1ccccc1)C(=O)O)/C(=C\c1ccc(Br)cc1)NC(=O)C1CCN(c2nccc(C(F)(F)F)n2)CC1 [Compound 80, (R)-3-Benzyloxy-2-(3-(4-bromophenyl)-2-{[1-(4-trifluoromethylpyrimidin-2-yl)-piperidine-4-carbonyl]amino}acryloylamino)propionic acid]",38.5
